In patent publication US6346098B1, “Methods and kits for locally administering an active agent to an interstitial space of a host” (The Board of Trustees of the Leland Stanford Junior …, priority 2000, dated 2002):

Legend:
[1] = Coronary venous injection of Evans Blue dye via AIV or MCV, regional myocardial infiltration; assay type: in vivo, pigs; settings: LV apex, anterior interventricular septum and anterior wall via AIV, inferoposterior wall via MCV
Experimental: Methods and Results: In 13 anesthetized pigs the coronary sinus was cannulated percutaneously and a balloon-tipped catheter was advanced to the anterior interventricular vein (AIV) or middle cardiac vein (MCV). […] Injection was performed with hyperbaric pressure in 8/13 cases (61%).

[2] = total group of 13 pigs, coronary venous injection

SMILES	infiltration of targeted myocardial regions [1]	persistence of contrast in myocardium (videodensitometric analysis) [2]	time for 50% clearance from myocardium (videodensitometric analysis) ([2]; FIG. 1) [min]
Cc1cc(-c2ccc(/N=N/c3ccc4c(S(=O)(=O)O)cc(S(=O)(=O)O)c(N)c4c3O)c(C)c2)ccc1/N=N/c1ccc2c(S(=O)(=O)O)cc(S(=O)(=O)O)c(N)c2c1O [Evans Blue dye, Evans Blue]	localized, regional infiltration was reproducibly accomplished		
CC(=O)Nc1c(I)c(NC(C)=O)c(I)c(C(=O)O)c1I [diatrizoate]		at least 30 minutes	~4
